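Exposure lasted 48 hours, with cells grown in 96-well plates and compounds tested at five concentrations. The concentration for 50% growth inhibition is given as GI50.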 Activity calls are given as the source filed them. Cut-off read from the data, not from the text of the source: active = GI50 up to about 1.1 µM and inactive = higher.
How the values were obtained:
Assay in all cases: DTP human tumour cell line panel, 48 h
[1] = system: LOX IMVI
[2] = system: OVCAR-8
[3] = system: ACHN
[4] = system: EKVX
[5] = system: HOP-62
[6] = system: SF-268
[7] = system: OVCAR-5
[8] = system: SR
[9] = system: SNB-75
[10] = system: T47D
[11] = system: U-251
[12] = system: HT-29
[13] = system: SF-295
[14] = system: CCRF-CEM
[15] = system: SK-OV-3
[16] = system: RXF 393
[17] = system: A498
[18] = system: DU-145
[19] = system: SF-539
[20] = system: HL-60

Structure (SMILES) | GI50 [1] | GI50 [2] | GI50 [3] | GI50 [4] | GI50 [5] | GI50 [6] | GI50 [7] | GI50 [8] | GI50 [9] | GI50 [10] | GI50 [11] | GI50 [12] | GI50 [13] | GI50 [14] | GI50 [15] | GI50 [16] | GI50 [17] | GI50 [18] | GI50 [19] | GI50 [20]
CC(Cc1ccc(Cl)cc1Cl)NO (stereo unspecified) | > 100 µM (inactive) | > 100 µM (inactive) | > 100 µM (inactive) | 58.2 µM (inactive) | > 100 µM (inactive) | > 100 µM (inactive) | > 100 µM (inactive) | > 100 µM (inactive) | 94 µM (inactive) | > 100 µM (inactive) | > 100 µM (inactive) | > 100 µM (inactive) | > 100 µM (inactive) | > 100 µM (inactive) | > 100 µM (inactive) | > 100 µM (inactive) | > 100 µM (inactive) | > 100 µM (inactive) | – | –
CC(C)(C)OC(=O)NC(Cc1ccc([N+](=O)[O-])cc1)C(=O)NC(CCCCNC(=O)OCc1ccccc1)C(=O)ON1C(=O)CCC1=O (stereo unspecified) | 28.8 µM (inactive) | > 100 µM (inactive) | > 100 µM (inactive) | > 100 µM (inactive) | > 100 µM (inactive) | 44.2 µM (inactive) | > 100 µM (inactive) | 49.4 µM (inactive) | > 100 µM (inactive) | > 10 µM (inactive) | > 100 µM (inactive) | > 100 µM (inactive) | 40 µM (inactive) | – | > 100 µM (inactive) | > 100 µM (inactive) | > 100 µM (inactive) | > 100 µM (inactive) | > 100 µM (inactive) | 78.3 µM (inactive)
CC(C)C(O)(C(=O)OCN1C(=O)C2C3C=CC(C2C1=O)C1C2C(=O)N(COC(=O)C(O)(C(C)C)C(C)O)C(=O)C2C31)C(C)O (stereo unspecified) | – | > 100 µM (inactive) | > 100 µM (inactive) | > 100 µM (inactive) | > 100 µM (inactive) | > 100 µM (inactive) | > 100 µM (inactive) | > 100 µM (inactive) | 0.0275 µM (active) | > 100 µM (inactive) | > 100 µM (inactive) | > 100 µM (inactive) | > 100 µM (inactive) | > 100 µM (inactive) | > 100 µM (inactive) | > 100 µM (inactive) | 39.7 µM (inactive) | > 100 µM (inactive) | > 100 µM (inactive) | > 100 µM (inactive)
Cc1cc(S(=O)(=O)Nc2nc3ccccc3nc2-c2cccc([N+](=O)[O-])c2)c(S)cc1Cl | – | 34.5 µM (inactive) | 27.8 µM (inactive) | 22.1 µM (inactive) | 20.2 µM (inactive) | 25.9 µM (inactive) | 36.6 µM (inactive) | 20.8 µM (inactive) | – | 17.2 µM (inactive) | 16.9 µM (inactive) | 17.9 µM (inactive) | 25.1 µM (inactive) | 23.5 µM (inactive) | 16.6 µM (inactive) | 33.7 µM (inactive) | 14.4 µM (inactive) | 18.5 µM (inactive) | 22.8 µM (inactive) | 20.4 µM (inactive)
COc1ccc(-c2c(C#N)c(N)n(C3OCC(O)C(O)C3O)c(=S)c2C#N)cc1 (stereo unspecified) | > 100 µM (inactive) | > 100 µM (inactive) | > 100 µM (inactive) | – | > 100 µM (inactive) | > 100 µM (inactive) | > 100 µM (inactive) | > 100 µM (inactive) | > 100 µM (inactive) | 95.9 µM (inactive) | – | > 100 µM (inactive) | > 100 µM (inactive) | > 100 µM (inactive) | > 100 µM (inactive) | > 100 µM (inactive) | > 100 µM (inactive) | > 100 µM (inactive) | > 100 µM (inactive) | > 100 µM (inactive)
COC(=O)Cn1c(=O)oc2nc(-c3ccccc3)cc(C(F)(F)F)c21 | – | 18.3 µM (inactive) | > 100 µM (inactive) | 70.6 µM (inactive) | > 100 µM (inactive) | > 100 µM (inactive) | > 100 µM (inactive) | 62.2 µM (inactive) | > 100 µM (inactive) | > 100 µM (inactive) | 61.2 µM (inactive) | 32.8 µM (inactive) | 45.3 µM (inactive) | – | > 100 µM (inactive) | > 100 µM (inactive) | > 100 µM (inactive) | > 100 µM (inactive) | > 100 µM (inactive) | –
COc1cc(CC(C)NC(C)=O)cc(OC)c1 (stereo unspecified) | > 100 µM (inactive) | > 100 µM (inactive) | > 100 µM (inactive) | – | > 100 µM (inactive) | > 100 µM (inactive) | > 100 µM (inactive) | 3.04 µM (inactive) | 34.4 µM (inactive) | > 100 µM (inactive) | > 100 µM (inactive) | > 100 µM (inactive) | > 100 µM (inactive) | > 100 µM (inactive) | > 100 µM (inactive) | > 100 µM (inactive) | > 100 µM (inactive) | > 100 µM (inactive) | > 100 µM (inactive) | > 100 µM (inactive)
Brc1ccc(/N=N/N2CCCCC2)cc1 | 35.7 µM (inactive) | 45.6 µM (inactive) | 76.6 µM (inactive) | 40.1 µM (inactive) | 67 µM (inactive) | 66.1 µM (inactive) | 80.7 µM (inactive) | 16.6 µM (inactive) | 41.9 µM (inactive) | 42.3 µM (inactive) | 54 µM (inactive) | – | 35.6 µM (inactive) | 22.2 µM (inactive) | > 100 µM (inactive) | 38.3 µM (inactive) | 57.5 µM (inactive) | > 100 µM (inactive) | > 100 µM (inactive) | –
Cc1nc(O)nc(N/N=C/c2ccc(Cl)cc2)c1C(=O)NC(C)(CO)CO | > 100 µM (inactive) | > 100 µM (inactive) | > 100 µM (inactive) | > 100 µM (inactive) | > 100 µM (inactive) | > 100 µM (inactive) | > 100 µM (inactive) | > 100 µM (inactive) | > 100 µM (inactive) | 60.7 µM (inactive) | > 100 µM (inactive) | > 100 µM (inactive) | > 100 µM (inactive) | > 100 µM (inactive) | > 100 µM (inactive) | > 100 µM (inactive) | > 100 µM (inactive) | > 100 µM (inactive) | – | > 100 µM (inactive)
COC1OC2COC(c3ccccc3)OC2C(O)C1OC(=S)c1ccccc1 (stereo unspecified) | 0.244 µM (active) | 67.8 µM (inactive) | 24.3 µM (inactive) | 19.5 µM (inactive) | 30.8 µM (inactive) | > 100 µM (inactive) | > 100 µM (inactive) | 42.9 µM (inactive) | – | 14.9 µM (inactive) | 0.188 µM (active) | 20.5 µM (inactive) | 39.3 µM (inactive) | 19.9 µM (inactive) | > 100 µM (inactive) | 41.4 µM (inactive) | 40.5 µM (inactive) | 97.3 µM (inactive) | 35.2 µM (inactive) | –
COc1ccc(OC)c2c(C(C)=O)cccc12 | – | > 100 µM (inactive) | > 100 µM (inactive) | > 100 µM (inactive) | > 100 µM (inactive) | > 100 µM (inactive) | > 100 µM (inactive) | > 100 µM (inactive) | – | > 100 µM (inactive) | > 100 µM (inactive) | – | > 100 µM (inactive) | > 100 µM (inactive) | > 100 µM (inactive) | > 100 µM (inactive) | > 100 µM (inactive) | > 100 µM (inactive) | > 100 µM (inactive) | 85.1 µM (inactive)
COc1cc(OC)c(/C=N/N=C(\N)NO)c(OC)c1 | > 100 µM (inactive) | > 100 µM (inactive) | 15.6 µM (inactive) | 35.4 µM (inactive) | 55.8 µM (inactive) | > 100 µM (inactive) | > 100 µM (inactive) | 63.5 µM (inactive) | 0.0255 µM (active) | > 100 µM (inactive) | > 100 µM (inactive) | > 100 µM (inactive) | 33 µM (inactive) | > 100 µM (inactive) | > 100 µM (inactive) | > 100 µM (inactive) | > 100 µM (inactive) | 85.5 µM (inactive) | > 100 µM (inactive) | –
CC(=O)OCC1(CNc2nc(N)ncc2C#N)CC(CCc2ccccc2)C1 (stereo unspecified) | 4.58 µM (inactive) | 50.2 µM (inactive) | 28.4 µM (inactive) | 6.01 µM (inactive) | 14.4 µM (inactive) | > 100 µM (inactive) | > 100 µM (inactive) | 4.8 µM (inactive) | 27.4 µM (inactive) | 13.3 µM (inactive) | 31.3 µM (inactive) | > 100 µM (inactive) | 7.66 µM (inactive) | 57 µM (inactive) | – | 27.5 µM (inactive) | 21.9 µM (inactive) | 32.1 µM (inactive) | > 100 µM (inactive) | 3.66 µM (inactive)
CCN(CC)CCCNc1n[n+]([O-])c2ccccc2[n+]1[O-] | – | 8.51 µM (inactive) | 6.41 µM (inactive) | – | – | 26.4 µM (inactive) | 20.5 µM (inactive) | 13.7 µM (inactive) | 23.1 µM (inactive) | 14.3 µM (inactive) | 18.5 µM (inactive) | 11.1 µM (inactive) | 15 µM (inactive) | 14.2 µM (inactive) | – | 13 µM (inactive) | 3.62 µM (inactive) | 18.4 µM (inactive) | 20.7 µM (inactive) | 3.57 µM (inactive)
COc1ccc2c(c1)c1c(n2CCN2CCOCC2)-c2ccccc2CC1 | – | 34.2 µM (inactive) | 38.5 µM (inactive) | – | 45.4 µM (inactive) | 42.3 µM (inactive) | 71.4 µM (inactive) | 18.2 µM (inactive) | 39.7 µM (inactive) | 39.5 µM (inactive) | 29.9 µM (inactive) | 36.6 µM (inactive) | 27.9 µM (inactive) | 27.2 µM (inactive) | > 100 µM (inactive) | 34 µM (inactive) | 32.9 µM (inactive) | 35.7 µM (inactive) | 23.1 µM (inactive) | –
